From ChEMBL document CHEMBL1201862, “PubChem BioAssay data set” (2004)
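Briefly, cells in 96-well plates were exposed to five compound concentrations for 48 h, and endpoints were estimated by linear interpolation. At the GI50, growth is halved.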 Active and inactive are the calls of the source. No stated cut-off is given here; in the data, active = GI50 up to about 1.1 µM and inactive = higher.

How the values were obtained:
Assay in all cases: DTP human tumour cell line panel, 48 h
MDA-MB-435 = tested on: MDA-MB-435
MDA-N = tested on: MDA-N
SW-620 = tested on: SW-620
T47D = tested on: T47D
A498 = tested on: A498
RXF 393 = tested on: RXF 393
OVCAR-8 = tested on: OVCAR-8
HCC 2998 = tested on: HCC 2998
SN12C = tested on: SN12C
COLO 205 = tested on: COLO 205
RPMI-8226 = tested on: RPMI-8226
786-0 = tested on: 786-0
HL-60 = tested on: HL-60
NCI-H226 = tested on: NCI-H226
Malme-3M = tested on: Malme-3M
MDA-MB-231 = tested on: MDA-MB-231
MCF7 = tested on: MCF7
HOP-92 = tested on: HOP-92
NCI-H23 = tested on: NCI-H23
DU-145 = tested on: DU-145
SF-295 = tested on: SF-295
SK-OV-3 = tested on: SK-OV-3
SK-MEL-28 = tested on: SK-MEL-28
SNB-75 = tested on: SNB-75
PC-3 = tested on: PC-3
SK-MEL-5 = tested on: SK-MEL-5
NCI-H460 = tested on: NCI-H460
HT-29 = tested on: HT-29
HCT-116 = tested on: HCT-116
SNB-19 = tested on: SNB-19
A549 = tested on: A549
UACC-257 = tested on: UACC-257
ACHN = tested on: ACHN
SK-MEL-2 = tested on: SK-MEL-2
NCI-H522 = tested on: NCI-H522
MOLT-4 = tested on: MOLT-4
UO-31 = tested on: UO-31
OVCAR-5 = tested on: OVCAR-5
HOP-62 = tested on: HOP-62
KM12 = tested on: KM12
SF-268 = tested on: SF-268
SR = tested on: SR
CCRF-CEM = tested on: CCRF-CEM
OVCAR-4 = tested on: OVCAR-4
OVCAR-3 = tested on: OVCAR-3
BT-549 = tested on: BT-549
IGROV-1 = tested on: IGROV-1
Hs-578T = tested on: Hs-578T
CAKI-1 = tested on: CAKI-1
TK-10 = tested on: TK-10
U-251 = tested on: U-251
NCI/ADR-RES = tested on: NCI/ADR-RES
HCT-15 = tested on: HCT-15
SF-539 = tested on: SF-539
M14 = tested on: M14
UACC-62 = tested on: UACC-62
EKVX = tested on: EKVX
K562 = tested on: K562
LOX IMVI = tested on: LOX IMVI

SMILES: COc1ccc(OC)c(CSc2ccc(OC)c(OC)c2)c1
- GI50 (MDA-MB-435): > 79.4 µM (inactive)
- GI50 (MDA-N): > 77.6 µM (inactive)
- GI50 (SW-620): > 100 µM (inactive)
- GI50 (T47D): 10.6 µM (inactive)
- GI50 (A498): 38.8 µM (inactive)
- GI50 (RXF 393): > 100 µM (inactive)
- GI50 (OVCAR-8): > 95.3 µM (inactive)
- GI50 (HCC 2998): 97.1 µM (inactive)
- GI50 (SN12C): > 100 µM (inactive)
- GI50 (COLO 205): > 100 µM (inactive)
- GI50 (RPMI-8226): > 84.7 µM (inactive)
- GI50 (786-0): > 100 µM (inactive)
- GI50 (HL-60): > 50.5 µM (inactive)
- GI50 (NCI-H226): > 71.4 µM (inactive)
- GI50 (Malme-3M): > 100 µM (inactive)
- GI50 (MDA-MB-231): > 93.5 µM (inactive)
- GI50 (MCF7): > 100 µM (inactive)
- GI50 (HOP-92): > 52.2 µM (inactive)
- GI50 (NCI-H23): 82 µM (inactive)
- GI50 (DU-145): > 100 µM (inactive)
- GI50 (SF-295): > 81.5 µM (inactive)
- GI50 (SK-OV-3): > 100 µM (inactive)
- GI50 (SK-MEL-28): > 100 µM (inactive)
- GI50 (SNB-75): 57.1 µM (inactive)
- GI50 (PC-3): > 79.8 µM (inactive)
- GI50 (SK-MEL-5): 45.4 µM (inactive)
- GI50 (NCI-H460): > 100 µM (inactive)
- GI50 (HT-29): > 73.3 µM (inactive)
- GI50 (HCT-116): > 86.9 µM (inactive)
- GI50 (SNB-19): > 100 µM (inactive)
- GI50 (A549): > 79.4 µM (inactive)
- GI50 (UACC-257): > 83.4 µM (inactive)
- GI50 (ACHN): > 100 µM (inactive)
- GI50 (SK-MEL-2): 49.9 µM (inactive)
- GI50 (NCI-H522): > 90.2 µM (inactive)
- GI50 (MOLT-4): 43.2 µM (inactive)
- GI50 (UO-31): 55.3 µM (inactive)
- GI50 (OVCAR-5): > 100 µM (inactive)
- GI50 (HOP-62): > 100 µM (inactive)
- GI50 (KM12): > 100 µM (inactive)
- GI50 (SF-268): > 100 µM (inactive)
- GI50 (SR): > 100 µM (inactive)
- GI50 (CCRF-CEM): > 100 µM (inactive)
- GI50 (OVCAR-4): 31.4 µM (inactive)
- GI50 (OVCAR-3): > 63.5 µM (inactive)
- GI50 (BT-549): > 85.1 µM (inactive)
- GI50 (IGROV-1): 99.1 µM (inactive)
- GI50 (Hs-578T): > 100 µM (inactive)
- GI50 (CAKI-1): > 100 µM (inactive)
- GI50 (TK-10): > 100 µM (inactive)
- GI50 (U-251): > 94.2 µM (inactive)
- GI50 (NCI/ADR-RES): > 70.8 µM (inactive)
- GI50 (HCT-15): > 73.8 µM
- GI50 (SF-539): > 100 µM (inactive)
- GI50 (M14): > 100 µM (inactive)
- GI50 (UACC-62): > 68.5 µM (inactive)
- GI50 (EKVX): 62.4 µM (inactive)
- GI50 (K562): 74.8 µM (inactive)
- GI50 (LOX IMVI): > 64.6 µM (inactive)

SMILES: O=c1c2ccccc2oc2c1ccc1ncccc12
- GI50 (MDA-MB-435): 25.7 µM (inactive)
- GI50 (MDA-N): 20 µM (inactive)
- GI50 (SW-620): 10.7 µM (inactive)
- GI50 (T47D): 12.1 µM (inactive)
- GI50 (A498): 5.01 µM (inactive)
- GI50 (RXF 393): 13.4 µM (inactive)
- GI50 (OVCAR-8): 11.8 µM (inactive)
- GI50 (HCC 2998): 30.4 µM (inactive)
- GI50 (SN12C): 10.6 µM (inactive)
- GI50 (COLO 205): 17.3 µM (inactive)
- GI50 (RPMI-8226): 15.4 µM (inactive)
- GI50 (786-0): 12.3 µM (inactive)
- GI50 (HL-60): 9.35 µM (inactive)
- GI50 (NCI-H226): 13.3 µM (inactive)
- GI50 (Malme-3M): 14.8 µM (inactive)
- GI50 (MDA-MB-231): 26.8 µM (inactive)
- GI50 (MCF7): 8.55 µM (inactive)
- GI50 (HOP-92): 5.53 µM (inactive)
- GI50 (NCI-H23): 16.2 µM (inactive)
- GI50 (DU-145): 4.69 µM (inactive)
- GI50 (SF-295): 12.9 µM (inactive)
- GI50 (SK-OV-3): 6.38 µM (inactive)
- GI50 (SK-MEL-28): 23 µM (inactive)
- GI50 (SNB-75): 21.3 µM (inactive)
- GI50 (PC-3): 22.4 µM (inactive)
- GI50 (SK-MEL-5): 11.5 µM (inactive)
- GI50 (NCI-H460): 3.56 µM (inactive)
- GI50 (HT-29): 14.5 µM (inactive)
- GI50 (HCT-116): 6.34 µM (inactive)
- GI50 (A549): 5.4 µM (inactive)
- GI50 (UACC-257): 20.7 µM (inactive)
- GI50 (ACHN): 5.55 µM (inactive)
- GI50 (SK-MEL-2): 27.2 µM (inactive)
- GI50 (NCI-H522): 12.7 µM (inactive)
- GI50 (MOLT-4): 3.08 µM (inactive)
- GI50 (UO-31): 5.93 µM (inactive)
- GI50 (OVCAR-5): 1.4 µM (inactive)
- GI50 (HOP-62): 15 µM (inactive)
- GI50 (KM12): 24.2 µM (inactive)
- GI50 (SF-268): 17.2 µM (inactive)
- GI50 (SR): 8.87 µM (inactive)
- GI50 (CCRF-CEM): 11.1 µM (inactive)
- GI50 (OVCAR-4): 14.4 µM (inactive)
- GI50 (OVCAR-3): 18 µM (inactive)
- GI50 (BT-549): 17.8 µM (inactive)
- GI50 (IGROV-1): 11 µM (inactive)
- GI50 (Hs-578T): 11.9 µM (inactive)
- GI50 (CAKI-1): 3.34 µM (inactive)
- GI50 (TK-10): 6.73 µM (inactive)
- GI50 (NCI/ADR-RES): 10.4 µM (inactive)
- GI50 (HCT-15): 11.9 µM
- GI50 (SF-539): 19.6 µM (inactive)
- GI50 (UACC-62): 11 µM (inactive)
- GI50 (EKVX): 8.2 µM (inactive)
- GI50 (K562): 24.7 µM (inactive)
- GI50 (LOX IMVI): 5.24 µM (inactive)

SMILES: Cc1ccc(/N=N/c2c(C)nn(C(=O)CC(=O)Nc3ccc(Cl)cc3)c2C)cc1C
- GI50 (MDA-MB-435): > 100 µM (inactive)
- GI50 (MDA-N): > 100 µM (inactive)
- GI50 (SW-620): > 100 µM (inactive)
- GI50 (T47D): > 100 µM (inactive)
- GI50 (A498): 70.1 µM (inactive)
- GI50 (RXF 393): 20.7 µM (inactive)
- GI50 (OVCAR-8): 32.9 µM (inactive)
- GI50 (HCC 2998): > 100 µM (inactive)
- GI50 (SN12C): > 100 µM (inactive)
- GI50 (COLO 205): 90.4 µM (inactive)
- GI50 (RPMI-8226): > 100 µM (inactive)
- GI50 (786-0): 53 µM (inactive)
- GI50 (HL-60): 24.4 µM (inactive)
- GI50 (NCI-H226): > 100 µM (inactive)
- GI50 (Malme-3M): 85.5 µM (inactive)
- GI50 (MDA-MB-231): 24.3 µM (inactive)
- GI50 (MCF7): > 100 µM (inactive)
- GI50 (HOP-92): 12.4 µM (inactive)
- GI50 (NCI-H23): > 100 µM (inactive)
- GI50 (DU-145): > 100 µM (inactive)
- GI50 (SF-295): 48.3 µM (inactive)
- GI50 (SK-OV-3): 16.9 µM (inactive)
- GI50 (SK-MEL-28): > 100 µM (inactive)
- GI50 (SNB-75): 21 µM (inactive)
- GI50 (PC-3): > 100 µM (inactive)
- GI50 (SK-MEL-5): > 100 µM (inactive)
- GI50 (NCI-H460): > 100 µM (inactive)
- GI50 (HT-29): > 100 µM (inactive)
- GI50 (HCT-116): 49.2 µM (inactive)
- GI50 (SNB-19): 15.5 µM (inactive)
- GI50 (A549): > 100 µM (inactive)
- GI50 (UACC-257): > 100 µM (inactive)
- GI50 (ACHN): 5.79 µM (inactive)
- GI50 (SK-MEL-2): 77.8 µM (inactive)
- GI50 (NCI-H522): 32.2 µM (inactive)
- GI50 (MOLT-4): 28.7 µM (inactive)
- GI50 (UO-31): 37.5 µM (inactive)
- GI50 (OVCAR-5): 98.2 µM (inactive)
- GI50 (HOP-62): 34 µM (inactive)
- GI50 (KM12): > 100 µM (inactive)
- GI50 (SF-268): 37.2 µM (inactive)
- GI50 (SR): 18.8 µM (inactive)
- GI50 (CCRF-CEM): 29.1 µM (inactive)
- GI50 (OVCAR-4): > 100 µM (inactive)
- GI50 (OVCAR-3): > 100 µM (inactive)
- GI50 (BT-549): > 100 µM (inactive)
- GI50 (IGROV-1): 37.2 µM (inactive)
- GI50 (Hs-578T): 7.05 µM (inactive)
- GI50 (CAKI-1): > 100 µM (inactive)
- GI50 (TK-10): 49.2 µM (inactive)
- GI50 (U-251): 26.6 µM (inactive)
- GI50 (NCI/ADR-RES): > 100 µM (inactive)
- GI50 (SF-539): 26 µM (inactive)
- GI50 (M14): > 100 µM (inactive)
- GI50 (UACC-62): 79.4 µM (inactive)
- GI50 (EKVX): 28.2 µM (inactive)
- GI50 (LOX IMVI): 96.8 µM (inactive)
